# Experiment: Water solubility test of cannabidiol product
# Type: physicochemical
# Conditions: 50 mg in 500 mL distilled water, room temperature, stirred
# Procedure: Water Solubility Test of Cannabidiol Product
# Three parts of 500 mL of distilled water are taken. 50 mg of the cannabidiol product prepared in Example 1, Comparative Example 1 and Comparative Example 2 are added respectively at room temperature, and stirred, and recorded the time required for dissolution, with the cannabidiol as control.
smiles,measurement,value
C=C(C)[C@@H]1CCC(C)=C[C@H]1c1c(O)cc(CCCCC)cc1O [cannabidiol],appearance of the solution,precipitation and delamination

# — patent US20220362167A1, “WATER-DISPERSIBLE CANNABIDIOL PRODUCT AND PREPARATION METHOD THEREFOR” (GUILIN LAYN NATURAL INGREDIENTS CORP., priority 2019, published 2022)
